The values below come from patent US4798896A, “Antipsychotic gamma-carboline N-oxides” (American Home Products Corporation, priority 1988, dated 1989).

Data set [1] addresses T1, serotonin-2 receptors (5HT2) (Rattus norvegicus, UniProt P14842).
T1 construct: employing brain cortical tissue; from tissue; host or cells: brain cortical tissue
The data set is described as follows: serotonin-2 (5HT2) receptor binding in brain cortical tissue. As to conditions: for inhibition at 1 µM: read-out: % Inhibition of serotonin 5HT2 binding, at 1 μM.

Data set [2] deals with T2, dopamine receptors (limbic D2) (Rattus norvegicus, UniProt P61169).
T2 construct: from tissue
The data set is described as follows: limbic (accumbens) D2 binding, 3H-spiroperidol. The note with it: limbic brain tissue. Here is the method:
(§1) Following the procedures of Fields et al., Brain Res., 136, 578 (1977) and Yamamura et al., Neurotransmitter Receptor Binding, Raven Press, N.Y. (1978), homogenized limbic brain tissue is incubated with ^3 H-spiroperidol and various concentrations of test compound, filtered and washed and shaken with Hydrofluor scintillation cocktail (National Diagnostics) and counted in a Packard 460 CD scintillation counter. Binding in the presence of test compound is expressed as percent of specific binding [total binding less binding in the presence of 1 μM (+) butaclamol]. This limbic D2 binding procedure assesses a compounds potential binding at dopamine receptors as a predictor of antipsychotic activity.

The test system of data set [3] is trained male CD rats (Charles River). The data set is described as follows: conditioned avoidance, shelf-jump response test in trained rats. In kind it is in vivo, rat. An excerpt: The antipsychotic/anxiolytic properties of the pyridine N-oxides of this invention were established by standard pharmacologically accepted procedures involving conditioned avoidance studies in which trained male CD rats (Charles River), 400-500 gm body weight, are exposed to a fifteen second warning tone (conditional stimulus) continued for an additional fifteen seconds accompanied by electric shock. The rates can avoid the electric shock by jumping to an exposed shelft (shelf-jump response). A response during the initial warning tone is considered to be an avoidance response while a response during shock delivery is considered an escape response. The avoidance response is determined and expressed as a percentage of total trials from an appropriate number of trials. The shelf-jump response test procedure follows that of Herman et al., Comm. in Psychopharm., 3, 165 (1979).

Data set [4] is described as follows: overall appraisal from conditioned avoidance, serotonin binding inhibition and dopamine receptor binding inhibition procedures. The note with it: tertiary nitrogen oxides of the parent compared. Here is the method: as §1
Data set [5] in a line: isolation of metabolites from rat urine after oral administration of the parent drug. As to conditions: oral administration of parent drug at 100 mg/kg. It counts as in vivo. An excerpt: (§2) By comparative analysis, the compounds of this invention were discovered to be one major form of several metabolites of the compounds disclosed in U.S. Pat. Nos. 4,636,563 and 4,672,117. This may be illustrated by consideration of the metabolic conversion of the compound of claim 13 of U.S. Pat. No. 4,636,563. Oral administration of the drug 8-fluoro-2,3,4,5-tetrahydro-2-[3-(3-pyridinyl)propyl]-1H-pyrido[4,3-b]indole to rats at a dose of 100 milligrams per kg followed by collectiion of urine and isolation of metabolites by column chromatography and selective solubilization in organic solvents yielded several metabolites. […] This metabolic pathway is consistent with the other anti-psychotic-anxilytic agents disclosed and claimed in U.S. Pat. Nos. 4,636,563 and 4,672,117.

A short description of data set [6]: detection of metabolite in monkey urine and plasma after administration of the parent drug. It counts as in vivo. The note with it: intragastric 4 mg/kg or iv 1 mg/kg of parent drug.
From the text: as §2

T1 sequence (P14842 whole entry): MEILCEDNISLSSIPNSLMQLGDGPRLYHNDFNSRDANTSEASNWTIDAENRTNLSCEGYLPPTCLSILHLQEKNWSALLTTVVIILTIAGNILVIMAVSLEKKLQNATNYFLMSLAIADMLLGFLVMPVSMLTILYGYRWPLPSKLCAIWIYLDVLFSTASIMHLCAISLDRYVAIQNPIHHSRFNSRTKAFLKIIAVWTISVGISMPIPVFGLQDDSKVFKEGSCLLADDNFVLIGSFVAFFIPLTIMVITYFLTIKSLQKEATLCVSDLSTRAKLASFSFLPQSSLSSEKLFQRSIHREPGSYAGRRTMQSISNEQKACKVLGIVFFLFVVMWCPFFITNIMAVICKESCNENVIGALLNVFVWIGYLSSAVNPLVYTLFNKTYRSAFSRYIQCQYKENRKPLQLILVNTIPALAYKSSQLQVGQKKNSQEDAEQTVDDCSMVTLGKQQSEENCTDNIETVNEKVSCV
T2 sequence (P61169 whole entry): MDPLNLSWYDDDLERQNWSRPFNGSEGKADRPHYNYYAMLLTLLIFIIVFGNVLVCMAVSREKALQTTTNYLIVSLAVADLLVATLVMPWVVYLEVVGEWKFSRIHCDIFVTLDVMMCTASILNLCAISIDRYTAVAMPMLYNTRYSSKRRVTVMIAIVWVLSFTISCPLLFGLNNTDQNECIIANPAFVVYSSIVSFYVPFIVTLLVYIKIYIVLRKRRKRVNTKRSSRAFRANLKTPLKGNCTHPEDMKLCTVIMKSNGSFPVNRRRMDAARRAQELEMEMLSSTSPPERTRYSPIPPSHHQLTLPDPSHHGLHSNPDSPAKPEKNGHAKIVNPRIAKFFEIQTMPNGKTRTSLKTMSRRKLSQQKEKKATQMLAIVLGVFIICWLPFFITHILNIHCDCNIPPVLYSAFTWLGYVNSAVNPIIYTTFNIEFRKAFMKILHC

As for `[O-][n+]1cccc(CCC[N+]2([O-])CCc3[nH]c4ccc(F)cc4c3C2)c1` (stereo not drawn) [B, 8-Fluoro-2,3,4,5-tetrahydro-2-[3-(3-pyridinyl)propyl]-1H-piperidino[4,3-b]indole N,2-dioxide], the results for the inhibition at 1 µM in data set [1] and in data set [2] were 18% and 4%, respectively.
For `Fc1ccc2[nH]c3c(c2c1)CN(CCCc1cccnc1)CC3` [A, 8-fluoro-2,3,4,5-tetrahydro-2-[3-(3-pyridinyl)propyl]-1H-piperidino(4,3-b]indole, reference compound], the inhibition (usually the percentage by which the read-out fell short of the control) at 1 µM in data set [1] came to 78%; in data set [2] it was 93%. Moreover, in data set [3] (20 mg/kg), the Inhibition of shelf-jump was 73%.
In the case of `[O-][N+]1(CCCc2cccnc2)CCc2[nH]c3ccc(F)cc3c2C1` (stereo not drawn) [C, 8-Fluoro-2,3,4,5-tetrahydro-2-[3-(3-pyridinyl)propyl]-1H-piperidino[4,3-b]indole 2-oxide], the inhibition at 1 µM in data set [1] is 18%; in data set [2], 0%. Besides, the Inhibition of shelf-jump result in data set [3] (result in words, dose not given) is reported as “not significant”.
Regarding `NCCc1ccc(O)c(O)c1` [dopamine, reference compound], in data set [1], the “activity at serotonin-2 receptor” value was “inactive”.
`[O-][n+]1cccc(CCCN2CCc3[nH]c4ccc(F)cc4c3C2)c1` [D, 8-Fluoro-2,3,4,5-tetrahydro-2-[3-(3-pyridinyl)propyl]-1H-piperidino[4,3-b]indole N-oxide]: the “antipsychotic/anxiolytic activity” value in data set [4] is on record as “meaningful antipsychotic/anxiolytic activity”. Further, the inhibition at 1 µM turned out to be 68% in data set [1] and 66% in data set [2]. In data set [3] (40 mg/kg), this compound returned an Inhibition of shelf-jump of 16%. In data set [5], the “metabolite of the parent drug in urine” value is listed as “one of the major metabolites”. For the same compound, the “detection as metabolite in urine and plasma” value in data set [6] was “detected in monkey urine and plasma”.
